Values after ≈ are worked out from the molar mass of the structure shown.
Assays:
[1] = test system: Candida albicans ATCC 60193; assay: Serial broth dilution in liquid medium, C. albicans; type: cell-based; conditions: ATCC60193, Mueller-Hinton broth, 48 hours, 50% reduction of microbial growth, n = 3
Method: Antibacterial and antifungal susceptibility to the compound 16b was tested using a serial broth dilution technique in Mueller-Hinton broth II (BBL, Cockeysville, USA), as described elsewhere. All procedures were done in aseptic conditions. Standard bacterial and fungal cultures were used: Staphylococcus aureus ATCC 25923, Staphylococcus epidermidis ATCC 12228, Escherichia coli ATCC 25922, Enterococcus faecalis ATCC 29212, Klebsiella pneumoniae ATCC 33499, Pseudomonas aeruginosa ATCC 27853, Proteus mirabilis ATCC 12459, Bacillus cereus ATCC 8035, and Candida albicans ATCC 60193. Standard cultures of nonsporic bacteria S. aureus, S. epidermidis, E. coli, E. faecalis, K. pneumoniae, P. aeruginosa and P. mirabilis were cultivated for 20–24 hours at 37°C in Mueller-Hinton Agar (BBL, Cockeysville, USA). A bacterial suspension was prepared from cultivated bacterial cultures in physiological solution according to turbidity standard 0.5 McFarland. Standard culture of sporic bacteria B. cereus was cultivated for 7 days at 37°C in Mueller-Hinton II Agar. […] Then the absorbance was measured at 600 nm using a multi-detection microplate reader. […]

[2] = test system: human prostate carcinoma cell line PPC-1; assay: MTT cell viability assay, PPC-1; type: cell-based; conditions: 72 hours of incubation, n = 3, read-out: EC50 against PPC-1
Method: The human clear cell renal cell carcinoma line (CaKi-1) was obtained from American Type Culture Collection (ATCC, Manassas, VA). The human prostate carcinoma cell line PPC-1 was originally obtained from ATCC and kindly provided by Prof. Tambet Teesalu (University of Tartu, Estonia). Human foreskin fibroblasts (HF) CRL-4001 were originally obtained from ATCC and kindly provided by Prof. Helder Santos (University of Helsinki, Finland). Cells were cultured in Dulbecco’s Modified Eagle’s GlutaMAX medium (Gibco (Carlsbad, CA, USA) supplemented with 10,000 U/mL penicillin, 10 mg/mL streptomycin (Gibco), and 10% fetal bovine serum (Gibco). During cell passaging, Tryple Express reagent (Gibco) was used for cell detachment. Cell cultures were grown at 37°C in a humidified atmosphere containing 5% CO2. They were used until the passage of 20.
The effect of synthesized compounds on cell viability was studied using 3-(4,5-dimethylthiazol-2-yl)-2,5-diphenyltetrazolium bromide (MTT; Sigma-Aldrich Co., St Louis, MO, USA) assay, as described elsewhere. […] The absorbance was measured at 570 and 630 nm using a multi-detection microplate reader. The compound effect on cell viability was calculated using a formula (1): Relativecellviability%=A−A0/ANC−A0 (1) Where: […]

[3] = test system: Bacillus cereus ATCC 8035; assay: Serial dilution on solid agar, B. cereus; type: cell-based; conditions: ATCC8035, solid Mueller-Hinton agar, 24 hours
Method: (§1) Antimicrobial activity of compound 16b on solid agar was tested using the same microbial cultures, and the same suspension preparation procedure, as described in above section. All procedures were done in aseptic conditions.
(§2) Mueller-Hinton agar was boiled and kept at to 37 °C during the whole procedure. Compound 16b solution was prepared in DMSO right before experiment. The Agar was mixed with compound solution at different ratios to make the final compound concentrations of 1 mM, 400 μM, 200 μM and 100 μM. Then 10 ml of prepared solution was poured into sterile Petri dishes (85 mm in diameter) and kept in aseptic conditions while the agar solidified. The agar with 0.5% of DMSO served as a negative control. With the help of loop standard microbial cultures by 0.1 ml were poured on the surface of prepared agar with investigative compound. Then Petri dishes were kept for 24 hours in thermostatic conditions.
(§3) The minimal dilution, i.e. the lowest concentration in μg/mL of the investigative and comparison compounds that inhibited visible growth of microorganisms was the minimal inhibitory concentration (MIC).

[4] = test system: Proteus mirabilis ATCC 12459; assay: Serial dilution on solid agar, P. mirabilis; type: cell-based; conditions: ATCC12459, solid Mueller-Hinton agar, 24 hours
Method: as §1, §2, §3

[5] = test system: HF, PPC-1, and CaKi-1 cells; assay: MTT cell viability screen at 100 μM (cell line not given); type: cell-based, human; conditions: 72 h, cell line not stated
Method: The effect of synthesized compounds on cell viability was studied using 3-(4,5-dimethylthiazol-2-yl)-2,5-diphenyltetrazolium bromide (MTT; Sigma-Aldrich Co., St Louis, MO, USA) assay, as described elsewhere. Briefly, HF, PPC-1, and CaKi-1 cells were seeded in 96-well plates (Corning) in triplicates at a volume of 100 μL at a concentration of 4 × 10^3 cells/well. After 24 h of incubation, the cells were treated with 100 μM of tested compounds. After 72 h, the MTT reagent (at 0.5 mg/mL concentration) has been added to the wells, and cells were incubated for 4 h. Then the medium was aspirated, and the formed purple crystals were dissolved in 100 μL DMSO (Sigma-Aldrich Co.). The absorbance was measured at 570 and 630 nm using a multi-detection microplate reader. The compound effect on cell viability was calculated using a formula (1): Relativecellviability%=A−A0/ANC−A0 (1) Where: […]

For `Cc1cc(NS(=O)(=O)c2ccc(NCCC(=O)NN=Cc3ccc([N+](=O)[O-])o3)cc2)no1` [Compound 16b, N-(5-methylisoxazol-3-yl)-4-((3-(2-((5-nitrofuran-2-yl)methylene)hydrazineyl)-3-oxopropyl)amino)-benzenesulfonamide], the EC50 [1] was 85.5 ± 7.1 µM, the EC50 [2] was 10.4 ± 3 µM and the MIC [3] was 400 µM (≈ 185 µg/mL). For the same compound, the MIC [4] was 1000 µM (≈ 462 µg/mL) and the “reduced cell viability up to about” value [5] was “about 40%”.

From PMC10035904, “Synthesis of novel sulphamethoxazole derivatives and exploration of their anticancer and antimicrobial properties” (PLOS ONE, 2023)
